Literature values in patent US20250127746A1, “TOPICAL CONTACT SENSITIZERS TO TREAT CANCER” (Squarex Pharmaceutical Corporation, priority 2023, published 2025).
Entries after “also recorded” stand apart in the source; their conditions may differ.

Tests used:
[1] = system: common warts; conditions: Candida injected, SADBE applied topically
[2] = system: herpes labialis outbreaks
[3] = system: PBMCs stimulated with HSV-1
[4] = prevention of cold sore episodes

## CCCCOc1c(OCCCC)c(=O)c1=O [SADBE, 3,4-Dibutoxy-3-cyclobutene-1,2-dione]
[1]
  efficacy to treat common warts: effective in treating warts; also recorded: effective to treat common warts
[2]; [4]
  time after which efficacy begins to wane: 3 to 4 months
  time for a dose to take effect: 2 to 8 weeks
[2]; topical application to the arm
  number of oral herpes (herpes labialis) outbreaks: effective in preventing (reducing the number of) herpes labialis episodes; also recorded: reduce frequency of herpes labialis outbreaks; also recorded: prevent and reduce the number of oral herpes outbreaks
[3]; 8 weeks after a topical application to the arm
  expression of interferon gamma (IFNG) by isolated PBMCs exposed to HSV: increased
[3]; 56 days after a single topical dose, versus day 1
  PBMC proliferation and immune gene expression profile versus subjects with infrequent or zero outbreaks: more like those of the subjects with infrequent or zero outbreaks
[3]; single dose, against both herpes simplex virus and Candida extract
  change of immune response type: from a type 2 immune response to a type 1 immune response
